Test results from PubChem BioAssay (NCI).
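The concentration for 50% growth inhibition is given as GI50. TGI is the concentration that stops growth completely.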

Tests used:
Assay in all cases: NCI anticancer screen, dose series, 384-well format
[1] = test system: OVCAR-5 ovarian
[2] = test system: NCI-H460 NSCLC
[3] = test system: OVCAR-3 ovarian
[4] = test system: LOX IMVI melanoma
[5] = test system: HOP-92 NSCLC
[6] = test system: SN12C renal
[7] = test system: ACHN renal
[8] = test system: NCI/ADR-RES ovarian
[9] = test system: CCRF-CEM leukemia
[10] = test system: UACC-62 melanoma
[11] = test system: HCC-2998 colon
[12] = test system: SK-OV-3 ovarian

## Nc1ncn(C2OC(CO)C(O)C2O)c(=O)n1 (centres undefined)
[1]
  GI50: 3220 nM
  TGI: 23000 nM
[2]
  GI50: 239 nM
  TGI: 1270 nM
[3]
  GI50: 1460 nM
  TGI: 5060 nM
[4]
  GI50: 531 nM
  TGI: 1850 nM
[5]
  GI50: 2360 nM
  TGI: 30000 nM
[6]
  GI50: 1580 nM
  TGI: 35700 nM
[7]
  GI50: 1300 nM
  TGI: 17000 nM
[8]
  GI50: 4250 nM
  TGI: > 35600 nM
[9]
  GI50: 993 nM
  TGI: 3670 nM
[10]
  GI50: 561 nM
  TGI: 2780 nM
[11]
  GI50: 1580 nM
  TGI: 5010 nM
[12]
  GI50: 3180 nM
  TGI: > 27700 nM
